Assay results taken from patent US10285989B2, “Pyrimidinone amide compounds as PDE2 inhibitors” (Merck Sharp & Dohme Corp., priority 2015, dated 2019).

How the values were obtained:
human PDE2A1 = human PDE2A1 (Homo sapiens (Human), UniProt O00408); assay: PDE2 IMAP FP inhibition assay, human PDE2A1 (selectivity panel format); type: biochemical; details: Lab A; read-out: Human PDE2 Ki (nM) - Lab A
How it was run: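 IMAP fluorescence polarization assay; substrate 50 nM FAM-cAMP with 1000 nM cGMP, enzyme at ~20% conversion, in 10 mM Tris pH 7.2, 10 mM MgCl2, 1 mM DTT, 0.01% Tween-20. 60 min room temperature, stopped with IMAP binding reagent, 1 h, then parallel/perpendicular fluorescence read.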

P-glycoprotein (P-gp) = P-glycoprotein (P-gp) (Homo sapiens (Human), UniProt P08183); assay: P-gp transport, experimental BA/AB ratio, human; type: in vitro ADME; details: LLC-PK1, 1 μM substrate concentration
P-glycoprotein (P-gp), sequence (P08183 whole entry): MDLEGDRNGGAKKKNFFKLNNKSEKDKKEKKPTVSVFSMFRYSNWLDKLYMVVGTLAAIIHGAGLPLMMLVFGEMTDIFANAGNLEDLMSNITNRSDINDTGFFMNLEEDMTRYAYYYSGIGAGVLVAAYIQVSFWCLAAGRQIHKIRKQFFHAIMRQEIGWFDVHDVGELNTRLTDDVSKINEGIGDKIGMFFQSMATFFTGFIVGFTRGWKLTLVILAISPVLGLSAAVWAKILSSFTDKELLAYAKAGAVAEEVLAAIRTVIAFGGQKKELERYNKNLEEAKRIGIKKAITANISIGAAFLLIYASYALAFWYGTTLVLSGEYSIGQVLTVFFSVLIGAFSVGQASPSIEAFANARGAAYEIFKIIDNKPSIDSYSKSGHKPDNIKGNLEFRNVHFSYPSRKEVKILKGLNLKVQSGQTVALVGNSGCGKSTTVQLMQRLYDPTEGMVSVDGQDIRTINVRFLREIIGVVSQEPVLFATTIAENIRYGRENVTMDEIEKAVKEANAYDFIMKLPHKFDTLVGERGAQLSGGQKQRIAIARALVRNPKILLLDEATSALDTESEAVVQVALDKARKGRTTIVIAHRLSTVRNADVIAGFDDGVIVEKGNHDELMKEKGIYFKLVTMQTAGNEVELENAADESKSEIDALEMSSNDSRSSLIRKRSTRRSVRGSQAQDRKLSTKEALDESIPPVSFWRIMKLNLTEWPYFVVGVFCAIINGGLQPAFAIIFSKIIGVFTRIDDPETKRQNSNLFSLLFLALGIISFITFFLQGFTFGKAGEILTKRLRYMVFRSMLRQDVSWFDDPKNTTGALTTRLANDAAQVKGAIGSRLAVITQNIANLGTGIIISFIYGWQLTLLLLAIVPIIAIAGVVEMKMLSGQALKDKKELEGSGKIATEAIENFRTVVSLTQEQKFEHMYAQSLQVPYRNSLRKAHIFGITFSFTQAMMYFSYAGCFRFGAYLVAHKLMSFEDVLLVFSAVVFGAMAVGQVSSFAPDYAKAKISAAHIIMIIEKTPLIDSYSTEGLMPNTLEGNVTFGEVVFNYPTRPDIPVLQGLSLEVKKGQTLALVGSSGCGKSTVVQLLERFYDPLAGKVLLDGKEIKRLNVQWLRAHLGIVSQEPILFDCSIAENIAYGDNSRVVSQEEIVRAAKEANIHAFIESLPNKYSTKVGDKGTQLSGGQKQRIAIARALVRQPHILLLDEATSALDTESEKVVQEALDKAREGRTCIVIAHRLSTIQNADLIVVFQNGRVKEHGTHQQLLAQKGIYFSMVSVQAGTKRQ
Excerpt: (§1) See Doan et al. “Passive permeability and P-glycoprotein-mediated efflux differentiate central nervous system (CNS) and non-CNS marketed drugs”, J. Pharm. Exper. […] Desirable human BA/AB ratio is less than 2.0. […] See, for example, Desai, et al. Integration of in Silico and in Vitro Tools for Scaffold Optimization during Drug Discovery: Predicting P-glycoprotein Efflux” Mol. Pharmac.

Rhesus PDE2A3 = Rhesus PDE2A3 (Macaca mulatta, UniProt B3VTJ2); assay: PDE2 fluorescence polarization (IMAP FP) inhibition assay, rhesus PDE2A3; type: biochemical, rhesus macaque; details: Lab A; read-out: Rhesus PDE2 Ki (nM) - Lab A
Rhesus PDE2A3, sequence (B3VTJ2 1-941): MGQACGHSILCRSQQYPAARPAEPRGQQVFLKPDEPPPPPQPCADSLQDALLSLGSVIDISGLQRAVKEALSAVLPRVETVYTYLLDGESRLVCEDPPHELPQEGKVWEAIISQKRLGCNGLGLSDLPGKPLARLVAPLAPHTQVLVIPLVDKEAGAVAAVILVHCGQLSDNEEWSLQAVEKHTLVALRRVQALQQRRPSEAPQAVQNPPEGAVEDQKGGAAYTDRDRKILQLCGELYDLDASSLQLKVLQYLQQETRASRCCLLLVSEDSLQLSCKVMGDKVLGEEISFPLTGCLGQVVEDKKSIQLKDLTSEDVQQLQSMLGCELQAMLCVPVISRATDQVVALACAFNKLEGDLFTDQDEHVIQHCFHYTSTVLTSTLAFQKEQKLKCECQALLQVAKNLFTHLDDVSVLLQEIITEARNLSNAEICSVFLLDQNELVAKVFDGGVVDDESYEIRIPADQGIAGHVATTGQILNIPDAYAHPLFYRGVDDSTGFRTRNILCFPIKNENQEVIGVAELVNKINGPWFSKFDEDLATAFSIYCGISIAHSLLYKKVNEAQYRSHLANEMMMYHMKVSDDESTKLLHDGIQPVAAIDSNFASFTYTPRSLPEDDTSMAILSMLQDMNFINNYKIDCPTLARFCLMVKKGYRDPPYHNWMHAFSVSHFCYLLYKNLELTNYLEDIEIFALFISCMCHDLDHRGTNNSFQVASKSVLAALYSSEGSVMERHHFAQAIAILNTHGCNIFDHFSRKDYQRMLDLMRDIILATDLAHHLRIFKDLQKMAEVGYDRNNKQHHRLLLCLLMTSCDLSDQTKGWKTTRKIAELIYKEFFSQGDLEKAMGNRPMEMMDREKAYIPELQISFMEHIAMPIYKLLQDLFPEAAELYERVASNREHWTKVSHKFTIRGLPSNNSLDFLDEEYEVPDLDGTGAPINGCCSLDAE

[1] = target: P-glycoprotein (P-gp, rat Mdr1a) (Rattus norvegicus, UniProt Q6PSM0); assay: P-gp transport, experimental BA/AB ratio, rat LLC-Mdr1a; type: in vitro ADME; details: LLC-PK1; rat LLC-Mdrla; 1 μM substrate concentration
P-glycoprotein (P-gp, rat Mdr1a), sequence (Q6PSM0 1-1272): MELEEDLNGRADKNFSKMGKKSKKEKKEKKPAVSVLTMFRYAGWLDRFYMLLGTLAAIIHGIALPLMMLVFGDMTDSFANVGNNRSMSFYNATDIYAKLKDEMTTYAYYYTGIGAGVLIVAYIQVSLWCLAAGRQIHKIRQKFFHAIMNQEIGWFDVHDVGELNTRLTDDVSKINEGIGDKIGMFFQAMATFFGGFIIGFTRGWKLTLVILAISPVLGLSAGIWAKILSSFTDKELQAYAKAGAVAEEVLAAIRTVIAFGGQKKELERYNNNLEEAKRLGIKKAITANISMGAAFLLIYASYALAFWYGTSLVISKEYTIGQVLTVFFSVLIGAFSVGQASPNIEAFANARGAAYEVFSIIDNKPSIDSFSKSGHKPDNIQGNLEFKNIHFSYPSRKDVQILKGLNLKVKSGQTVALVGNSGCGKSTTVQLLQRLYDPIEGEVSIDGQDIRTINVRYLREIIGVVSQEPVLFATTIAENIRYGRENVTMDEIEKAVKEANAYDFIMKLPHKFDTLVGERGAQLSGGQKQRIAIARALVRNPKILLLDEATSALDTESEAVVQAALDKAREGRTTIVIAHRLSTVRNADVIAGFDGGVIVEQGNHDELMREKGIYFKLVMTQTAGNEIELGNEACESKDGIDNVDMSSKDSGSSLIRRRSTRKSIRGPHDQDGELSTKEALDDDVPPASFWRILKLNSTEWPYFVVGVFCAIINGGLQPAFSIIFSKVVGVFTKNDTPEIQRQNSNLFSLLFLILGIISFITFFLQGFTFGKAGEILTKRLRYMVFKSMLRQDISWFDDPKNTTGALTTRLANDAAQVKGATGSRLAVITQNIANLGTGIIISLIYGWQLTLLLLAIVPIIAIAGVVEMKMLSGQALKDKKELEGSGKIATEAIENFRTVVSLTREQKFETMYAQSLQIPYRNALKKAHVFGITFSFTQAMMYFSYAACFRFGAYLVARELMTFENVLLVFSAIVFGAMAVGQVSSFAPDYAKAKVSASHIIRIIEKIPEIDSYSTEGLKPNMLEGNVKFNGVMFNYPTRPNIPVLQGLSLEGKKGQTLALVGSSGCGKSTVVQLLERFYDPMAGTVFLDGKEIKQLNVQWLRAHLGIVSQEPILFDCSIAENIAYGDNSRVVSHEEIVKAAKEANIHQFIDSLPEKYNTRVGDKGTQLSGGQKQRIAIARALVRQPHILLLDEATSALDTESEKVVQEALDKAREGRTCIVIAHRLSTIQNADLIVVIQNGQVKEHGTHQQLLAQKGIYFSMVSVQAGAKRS
Excerpt: as §1

human PDE2A1, sequence (O00408 other isoform, or with tags, fused parts or gaps): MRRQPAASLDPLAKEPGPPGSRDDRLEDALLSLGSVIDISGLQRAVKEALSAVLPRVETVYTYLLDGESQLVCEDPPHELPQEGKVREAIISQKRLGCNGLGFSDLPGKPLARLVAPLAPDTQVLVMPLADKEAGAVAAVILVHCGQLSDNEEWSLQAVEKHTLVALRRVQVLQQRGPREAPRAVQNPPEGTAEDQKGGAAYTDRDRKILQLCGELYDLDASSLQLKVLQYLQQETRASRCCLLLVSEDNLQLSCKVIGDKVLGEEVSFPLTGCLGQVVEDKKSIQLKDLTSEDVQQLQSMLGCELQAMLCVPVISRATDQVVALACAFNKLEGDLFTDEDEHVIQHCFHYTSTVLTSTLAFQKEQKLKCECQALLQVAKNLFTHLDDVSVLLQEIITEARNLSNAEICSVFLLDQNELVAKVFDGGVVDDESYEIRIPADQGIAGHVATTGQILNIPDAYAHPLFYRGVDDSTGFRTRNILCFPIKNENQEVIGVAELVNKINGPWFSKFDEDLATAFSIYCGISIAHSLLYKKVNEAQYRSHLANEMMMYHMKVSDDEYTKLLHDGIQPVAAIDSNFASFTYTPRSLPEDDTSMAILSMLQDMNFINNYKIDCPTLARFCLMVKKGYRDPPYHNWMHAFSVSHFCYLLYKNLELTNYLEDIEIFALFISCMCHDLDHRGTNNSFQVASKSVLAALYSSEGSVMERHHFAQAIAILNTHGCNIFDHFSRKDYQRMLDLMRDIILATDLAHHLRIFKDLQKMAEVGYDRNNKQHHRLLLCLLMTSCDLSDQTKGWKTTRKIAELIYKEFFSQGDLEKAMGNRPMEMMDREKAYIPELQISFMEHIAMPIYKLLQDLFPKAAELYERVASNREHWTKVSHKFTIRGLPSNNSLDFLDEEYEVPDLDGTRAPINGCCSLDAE

Compound | Ki (human PDE2A1) | efflux ratio at 1 μM (P-glycoprotein (P-gp)) | Ki (Rhesus PDE2A3) | efflux ratio at 1 μM [1]
CC(C)OCCCOc1nc(C(=O)NC(C)c2ccc(C(F)(F)F)cc2)cc(=O)[nH]1 (centres unmarked) [Example 183, 2-[3-(1-methylethoxy)propoxy]-6-oxo-N-{1-[4-(trifluoromethyl)phenyl]ethyl}-1,6-dihydro pyrimidine-4-carboxamide] | 23 nM | 1.2 | 29 nM | 7.9
COc1ccc(OCCCOc2nc(C(=O)NC(C)c3ccc(C(F)(F)F)cc3)cc(=O)[nH]2)cc1 (centres unmarked) [Example 194, 2-[3-(4-methoxyphenoxy)propoxy]-6-oxo-N-{1-[4-(trifluoromethyl)phenyl]ethyl}-1,6-dihydropyrimidine-4-carboxamide] | 4.4 nM | 1 | ~5.2 nM | 8.4
